Test results published in patent US20100092456A1, “METHODS OF TREATMENT” (priority 2006, published 2010).

Assays:
[1] = tested on: PtdIns4P and PtdIns5P in the CEF of MEL cells; test: Mass assay of PtdIns4P and PtdIns5P in the CEF of MEL cells with or without UV irradiation; type: cell-based, Murine; settings: MEL cells preincubated with wortmannin (200 nM and 5 μM) or curcumin (100 μM); 200 J/m UV; CEF after 30 minutes
Description: (§1) D) MEL cells were preincubated with either vehicle (DMSO) or wortmannin (200 nM and 5 μM) were irradiated with 200 J/m of UV light. After 30 minutes the CEF was isolated and a mass assay was used to determine the levels of PtdIns4P and PtdIns5P (expressed as % of control non-irradiated cells. The results are calculated from 3 independent experiments).
as §1, with “E)” for “D)”, “(ethanol)” for “(DMSO)”, “curcumin (100” for “wortmannin (200 nM and 5”, “irradiation.” for “light.”, “control, non curcumin-treated nor non UV-irradiated” for “control non-irradiated”
C) MEL cells were transiently transfected to express EGFP, EGFP-type II b PIP kinase and EGFP-IpgD/IpgE. In addition MEL cells were transfected with pSuper-IIβRNAi. […] A mass assay was used to determine the level of PtdIns5P (expressed as % of control non-irradiated cells. The results are calculated from 3 independent experiments). […]
MEL cells were washed, twice in ice cold PBS before their fractionation using a detergent-free hypotonic buffer. […] The protein content of all fractions was determined using the Bradford reagent (BioRad). PtdIns4P and PtdIns5P were measured using in vitro mass assays employing recombinant type I and type II PIP kinases, respectively. […]

MEL cells = test: MEL cell viability and cell cycle profile; type: cell-based, Murine
Description: Ethanol fixed cells were incubated with prodium iodide (20 μg/ml) and RNAse (10 μg/ml) before cell cycle analysis by flow cytometry. Proteins were analysed by standard western blotting procedures employing the following antibodies: anti-tubulin and anti-flag (both from Sigma), anti-actin (Chemicon International), anti-histone 4 (Upstate Biotechnology), anti-phospho p54, anti-phospho p46, anti-phospho p38, total p54, total p46 and total p38 (all from Cell Signalling Technology) anti-ING2, anti EGFP (Clontech), anti-type II β PIP kinase, anti-GST and anti-myc (both generated in house).
To investigate the sub-nuclear localisation of UV-induced nuclear PtdInsPs, we fractionated nuclei to generate nucleoplasm (containing nuclear membranes and soluble nuclear material) and the chromatin enriched fraction (CEF) (FIG. 1c inset). […] Thus, the PtdInsP pool present in the CEF is a target for regulation in response to cellular stress.

ING2 = test: Western blot of endogenous ING2 associated with the CEF of MEL cells; type: cell-based, Murine; settings: MEL cells; 200 J/m UV; NAC 5 mM 4 hours, wortmannin 200 nM and 5 μM, curcumin 100 μM
Description: FIG. 4. A) Exponentially growing MEL cells were irradiated with either 200 J/m of UV light or 10 Gy of gamma radiation. After 30 minutes the CEF was isolated and the subjected to SDS-PAGE followed by transfer of the separated proteins to a nitrocellulose membrane. Western blotting for endogenous ING2 and histone 4 proteins was performed. Representative western blots are shown. B) Exponentially growing MEL cells were incubated in the absence or presence of N-acetyl cysteine (NAC) (5 mM) for 4 hours prior to a control irradiation or exposed to 200 J/m of UV light before the isolation of the CEF. Differentiated MEL cells were incubated in the absence or presence of H2O2 (500 μM) for 15 minutes prior to the isolation of the CEF. Proteins in the CEF were subjected to SDS-PAGE followed by transfer to a nitrocellulose membrane. Western blotting for endogenous ING2 and histone 4 proteins was performed. Representative western blots are shown. C) MEL cells were preincubated with either vehicle, wortmannin (200 nM and 5 μM) or curcumin (100 μM) were irradiated with 200 J/m of UV light. After 30 minutes the CEF was isolated and proteins were subjected to SDS-PAGE followed by transfer to a nitrocellulose membrane. Western blotting for endogenous ING2 and histone 4 proteins was performed. Representative western blots are shown. D) The CEF from transiently transfected MEL cells with either pSuper or pSuper-IIβRNAi was prepared. Proteins in the CEF were subjected to SDS-PAGE followed by transfer to a nitrocellulose membrane. […] Proteins were analysed by standard western blotting procedures employing the following antibodies: anti-tubulin and anti-flag (both from Sigma), anti-actin (Chemicon International), anti-histone 4 (Upstate Biotechnology), anti-phospho p54, anti-phospho p46, anti-phospho p38, total p54, total p46 and total p38 (all from Cell Signalling Technology) anti-ING2, anti EGFP (Clontech), anti-type II β PIP kinase, anti-GST and anti-myc (both generated in house).

PIKfyve = PIKfyve (Homo sapiens, UniProt Q9Y2I7); settings: background statement; cited from earlier work
Sequence of PIKfyve (Q9Y2I7 whole entry, species assumed): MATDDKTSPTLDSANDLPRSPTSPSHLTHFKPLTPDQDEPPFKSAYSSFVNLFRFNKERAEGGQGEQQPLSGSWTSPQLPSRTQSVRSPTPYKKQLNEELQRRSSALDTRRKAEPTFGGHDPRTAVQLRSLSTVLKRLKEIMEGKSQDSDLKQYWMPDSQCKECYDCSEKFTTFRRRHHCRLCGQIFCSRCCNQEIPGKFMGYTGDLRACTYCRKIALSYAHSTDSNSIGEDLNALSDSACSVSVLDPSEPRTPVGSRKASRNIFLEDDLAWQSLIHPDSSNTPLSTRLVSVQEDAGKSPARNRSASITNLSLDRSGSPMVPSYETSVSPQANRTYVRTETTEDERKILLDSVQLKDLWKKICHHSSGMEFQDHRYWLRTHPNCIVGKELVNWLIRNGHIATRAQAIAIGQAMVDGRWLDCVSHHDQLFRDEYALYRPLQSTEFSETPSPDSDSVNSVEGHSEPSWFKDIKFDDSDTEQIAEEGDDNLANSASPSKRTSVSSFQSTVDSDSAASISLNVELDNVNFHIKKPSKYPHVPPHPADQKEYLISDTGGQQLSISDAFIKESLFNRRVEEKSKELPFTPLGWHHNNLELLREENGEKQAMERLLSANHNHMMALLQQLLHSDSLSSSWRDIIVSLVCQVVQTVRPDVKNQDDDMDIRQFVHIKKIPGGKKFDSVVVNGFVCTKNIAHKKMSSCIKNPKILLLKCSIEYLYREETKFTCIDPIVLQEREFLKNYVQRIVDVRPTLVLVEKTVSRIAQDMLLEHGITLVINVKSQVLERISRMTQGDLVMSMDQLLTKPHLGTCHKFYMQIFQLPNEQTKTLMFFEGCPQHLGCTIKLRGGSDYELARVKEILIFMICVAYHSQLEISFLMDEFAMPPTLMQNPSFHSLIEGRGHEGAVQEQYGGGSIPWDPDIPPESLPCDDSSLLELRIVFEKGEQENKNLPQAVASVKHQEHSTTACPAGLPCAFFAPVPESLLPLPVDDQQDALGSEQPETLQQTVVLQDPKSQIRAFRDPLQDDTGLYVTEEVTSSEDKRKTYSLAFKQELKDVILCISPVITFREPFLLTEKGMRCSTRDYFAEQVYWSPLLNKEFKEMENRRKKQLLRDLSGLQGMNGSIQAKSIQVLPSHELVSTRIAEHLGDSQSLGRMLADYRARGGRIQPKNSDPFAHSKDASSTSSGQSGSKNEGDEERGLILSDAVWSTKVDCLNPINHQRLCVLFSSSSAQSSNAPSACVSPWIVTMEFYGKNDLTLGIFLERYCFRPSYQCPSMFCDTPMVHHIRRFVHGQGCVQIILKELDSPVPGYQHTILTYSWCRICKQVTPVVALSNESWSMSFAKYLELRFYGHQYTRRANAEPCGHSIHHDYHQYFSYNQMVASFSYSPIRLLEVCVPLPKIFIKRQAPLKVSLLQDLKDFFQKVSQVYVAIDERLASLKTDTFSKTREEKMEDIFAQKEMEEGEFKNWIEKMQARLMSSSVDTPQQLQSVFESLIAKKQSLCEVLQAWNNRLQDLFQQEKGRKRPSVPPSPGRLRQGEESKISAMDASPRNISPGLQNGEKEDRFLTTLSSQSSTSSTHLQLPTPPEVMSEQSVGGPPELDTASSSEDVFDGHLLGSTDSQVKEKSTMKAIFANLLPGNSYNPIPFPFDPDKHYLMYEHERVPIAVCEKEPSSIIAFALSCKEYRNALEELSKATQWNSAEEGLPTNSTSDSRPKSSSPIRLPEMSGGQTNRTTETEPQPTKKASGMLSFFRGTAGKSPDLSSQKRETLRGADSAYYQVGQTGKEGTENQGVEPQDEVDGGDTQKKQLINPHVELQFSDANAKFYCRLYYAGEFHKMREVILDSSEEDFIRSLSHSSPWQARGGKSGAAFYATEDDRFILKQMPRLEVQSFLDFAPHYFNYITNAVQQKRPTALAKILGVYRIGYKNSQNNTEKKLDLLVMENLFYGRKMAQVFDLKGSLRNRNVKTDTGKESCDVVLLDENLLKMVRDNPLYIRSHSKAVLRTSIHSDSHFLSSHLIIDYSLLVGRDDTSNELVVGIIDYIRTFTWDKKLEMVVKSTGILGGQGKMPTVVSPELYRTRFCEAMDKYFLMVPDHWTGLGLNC

## COc1cc(/C=C/C(=O)CC(=O)/C=C/c2ccc(O)c(OC)c2)ccc1O [curcumin]
[1]
  UV light-induced accumulation of PtdIns4P: inhibited
  UV light-induced accumulation of PtdIns5P: inhibited
MEL cells
  effect on MEL cell viability: no effect
MEL cells; MEL cells, compound alone
  effect on the cell cycle profile: no effect
ING2
  UV-induced translocation of endogenous ING2 to the CEF: completely inhibited
PIKfyve
  inhibition of PIKfyve: able to inhibit
